The values that follow come from ChEMBL document CHEMBL4665905, “2-Amino-N-heteroaryl-nicotimamides as Na1.8 Inhibitors” (ACS Med Chem Lett, 2020).

What is called IC50 is the concentration that gives 50% inhibition. Higher therefore signals lower potency.

The test deals with Sodium channel protein type 10 subunit alpha (Homo sapiens, UniProt Q9Y5Y9). The test can be described thus: Inhibition of human Nav1.8 expressed in HEK293 cells by whole cell patch clamp assay. Format: cell-based.
Chain of Sodium channel protein type 10 subunit alpha (Q9Y5Y9 whole entry): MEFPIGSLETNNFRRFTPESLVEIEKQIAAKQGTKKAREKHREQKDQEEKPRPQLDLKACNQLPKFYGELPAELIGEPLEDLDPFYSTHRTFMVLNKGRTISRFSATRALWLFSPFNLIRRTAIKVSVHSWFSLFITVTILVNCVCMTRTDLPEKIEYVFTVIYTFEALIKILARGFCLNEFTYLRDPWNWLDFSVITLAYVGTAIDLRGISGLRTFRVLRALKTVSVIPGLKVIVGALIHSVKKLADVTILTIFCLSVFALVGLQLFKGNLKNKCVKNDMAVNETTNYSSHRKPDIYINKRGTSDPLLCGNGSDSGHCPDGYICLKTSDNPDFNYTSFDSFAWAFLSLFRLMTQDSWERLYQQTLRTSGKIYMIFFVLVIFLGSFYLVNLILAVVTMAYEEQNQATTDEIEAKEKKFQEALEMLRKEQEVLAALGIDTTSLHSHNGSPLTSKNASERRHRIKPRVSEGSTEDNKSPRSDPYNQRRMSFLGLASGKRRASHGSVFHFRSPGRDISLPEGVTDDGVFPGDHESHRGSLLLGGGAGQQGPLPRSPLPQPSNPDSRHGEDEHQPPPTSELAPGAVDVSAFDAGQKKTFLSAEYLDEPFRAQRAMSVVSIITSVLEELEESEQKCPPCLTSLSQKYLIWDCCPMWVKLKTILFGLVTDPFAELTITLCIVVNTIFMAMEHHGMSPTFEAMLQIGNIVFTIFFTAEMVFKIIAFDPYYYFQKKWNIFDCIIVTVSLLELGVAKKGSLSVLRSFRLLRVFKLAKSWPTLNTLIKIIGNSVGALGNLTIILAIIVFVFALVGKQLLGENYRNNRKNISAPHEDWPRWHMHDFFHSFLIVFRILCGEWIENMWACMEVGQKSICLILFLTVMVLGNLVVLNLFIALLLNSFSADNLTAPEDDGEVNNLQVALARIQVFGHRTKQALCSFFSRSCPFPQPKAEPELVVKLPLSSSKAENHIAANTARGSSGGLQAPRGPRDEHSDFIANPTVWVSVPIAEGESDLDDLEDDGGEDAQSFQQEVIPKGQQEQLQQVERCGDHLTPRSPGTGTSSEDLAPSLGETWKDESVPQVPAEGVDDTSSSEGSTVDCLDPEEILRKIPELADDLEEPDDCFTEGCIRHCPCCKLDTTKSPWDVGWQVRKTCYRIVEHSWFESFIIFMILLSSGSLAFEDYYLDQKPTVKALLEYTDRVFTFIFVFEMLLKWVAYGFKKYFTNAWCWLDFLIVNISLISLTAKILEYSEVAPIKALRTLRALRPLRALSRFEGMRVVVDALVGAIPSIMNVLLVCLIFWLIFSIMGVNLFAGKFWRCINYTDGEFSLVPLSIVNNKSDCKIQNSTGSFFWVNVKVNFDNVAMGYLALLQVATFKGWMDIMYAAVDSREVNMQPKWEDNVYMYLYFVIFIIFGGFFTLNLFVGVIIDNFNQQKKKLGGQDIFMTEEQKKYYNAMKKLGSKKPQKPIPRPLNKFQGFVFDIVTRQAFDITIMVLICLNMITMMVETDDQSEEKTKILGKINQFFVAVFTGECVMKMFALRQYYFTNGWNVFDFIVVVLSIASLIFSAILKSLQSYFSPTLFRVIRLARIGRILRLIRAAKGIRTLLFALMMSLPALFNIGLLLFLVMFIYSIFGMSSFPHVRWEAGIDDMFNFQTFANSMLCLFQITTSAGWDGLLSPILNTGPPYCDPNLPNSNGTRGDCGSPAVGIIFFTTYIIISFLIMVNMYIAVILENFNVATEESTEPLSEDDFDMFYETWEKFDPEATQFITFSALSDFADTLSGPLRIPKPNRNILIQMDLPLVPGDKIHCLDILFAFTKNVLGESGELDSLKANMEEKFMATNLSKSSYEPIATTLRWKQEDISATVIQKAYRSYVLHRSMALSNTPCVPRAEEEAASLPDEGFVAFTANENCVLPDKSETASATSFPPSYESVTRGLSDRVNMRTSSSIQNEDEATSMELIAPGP

The molecule `NS(=O)(=O)c1cc(NC(=O)c2cc(Cl)cnc2N2CCCC(F)(F)CC2)ccn1` had a concentration for half-maximal inhibition (IC50) of 3.9 nM.
